In patent US20220000117A1, “METHOD FOR CONTROLLING DISEASES IN SMALL GRAIN CEREALS, SEED OF SMALL GRAIN CEREALS, AND METHOD FOR SUPPRESSING LODGING DAMAGE IN SMALL GRAIN CEREALS” (KUMIAI CHEMICAL INDUSTRY CO., LTD., priority 2019, published 2022):

Legend:
powdery mildew [1] = test: Test Example 5: control test of wheat powdery mildew, field, wheat variety Haruyutaka; format: in vivo, Blumeria graminis; conditions: for Degree of Disease Occurrence / Disease Leaf Rate (%): Seed Treatment 2.5 g/Seed 1 kg (250 g/ha), leaves just below flag leaves, 85 days after seeding
Method: (§1) Degree of Disease Occurrence=Σ(Index×Number of Leaves of Index)/(4×Number of Investigated Leaves)×100 (1)
Seed of wheat (variety: Haruyutaka) sterilized in advance with commercial Benlate T wettable powder 20 (“Benlate” is a registered trademark) was used. In Examples 12, 13, and 14, seed having a mass of 1 kg was mixed into 50 ml of suspension water containing 2.5 g or 1.25 g of dichlobentiazox or 50 ml of suspension water containing 2.5 g of isotianil, air-dried, and then, stripe-sown in a field with a furrow width of 30 cm and a ratio of 100 kg/ha (300 seeds/m^2). Moreover, in Comparative Example 14, seed having a mass of 1 kg was mixed into 50 ml of suspension water containing 2.5 g of tiadinil (commercial V-GET flowable was used, “V-GET” is a registered trademark), air-dried, and then, stripe-sown in a field with a furrow width of 30 cm and a ratio of 100 kg/ha (300 seeds/m^2). The presence or absence of disease occurrence and a lesion area ratio of powdery mildew in leaves just below hag leaves (next leaves) of 30 stems were investigated 85 days after seeding by according to the criteria in Table 1, and a disease leaf rate and the degree of disease occurrence were calculated by the above calculation formula(1).

septoria leaf blotch = test: Test Example 7: control test of septoria leaf blotch of wheat, field, wheat variety TRAPEZ; format: in vivo, Septoria tritici; conditions: for Degree of Disease Occurrence: flag leaves, 219 days after seeding
Method: as §1
Seed of wheat (variety: TRAPEZ) was used. On seed having a mass of 1 kg, 20 ml of suspension water containing 0.5 g or 5 g of dichlobentiazox or isotianil was sprayed. In Examples 16, 17, and 18, the seed treated with the chemical was stripe-sown with a ratio of 100 kg/ha. In contrast, in Comparative Example 17, seed which had not treated with dichlobentiazox or isotianil was sown in a field in the same manner, and a spray solution corresponding to that obtained by suspending 750 g of chlomthalonil (commercial FUNGISTOP was used, “FUNGISTOP” is a registered trademark) in 200 liters of water per 1 ha was sprayed on foliage of wheat 154 days and 184 days after seeding. The severity of disease occurrence of septoria leaf blotch in flag leaves of 25 stems was investigated 219 days after seeding according to the criteria in Table 1, and the degree of disease occurrence was calculated by the above calculation formula (1).

powdery mildew [2] = test: Test Example 1: control test of wheat powdery mildew, field, wheat variety Haruyutaka; format: in vivo, Blumeria graminis; conditions: Foliage Treatment, flag leaves, 79 days after seeding
Method: Seed of wheat (variety: Haruyutaka) sterilized in advance with commercial Benlate T wettable powder 20 (“Benlate” is a registered trademark) was used. In Example 1, seed having a mass of 1 kg was mixed into 100 ml of suspension water containing 5 g of dichlobentiazox, air-dried, and then, stripe-sown in a field with a furrow width of 30 cm and a ratio of 163 kg/ha (417 seeds/m^2). In contrast, in Comparative Example 1, seed which had not treated with dichlobentiazox was sown in a field in the same manner, and a spray solution corresponding to that obtained by suspending 500 g of dichlobentiazox in 200 liters of water per 1 ha was sprayed on foliage of wheat three times, during an ear emergence period (63 days after seeding), a flowering period (70 days after seeding), and a flowering end period (77 days after seeding). Similarly, in place of 500 g of dichlobentiazox in Comparative Example 1, 250 g of azoxystrobin (commercial Amistar 20 flowable was used. “Amistar” is a registered trademark) was used in Comparative Example 2, and 125 g of propiconazole (commercial Tilt emulsifiable concentrate 25 was used, “Tilt” is a registered trademark) was used in Comparative Example 3. The presence or absence of disease occurrence and a lesion area ratio of powdery mildew in flag leaves of 30 stems were investigated 79 days after seeding according to the criteria in Table 1, and a disease leaf rate and the degree of disease occurrence were calculated by the following calculation formula (1).
as §1

[3] = tested on: wheat (variety: Haruyutaka); test: Test Example 6: evaluation test of shortening of wheat (culm length, seed yield), field; format: in vivo; conditions: Propiconazole foliage spray 125 g/ha three times only, no seed treatment
[4] = tested on: wheat (variety: Norin No. 61); test: Test Example 3: emergence rate of wheat seed; format: in vivo
Method: (§2) Seed having a mass of 1 kg of wheat (variety: Norin No. 61) was mixed into 100 ml of suspension water containing 5 g or 0.5 g of dichlobentiazox or isotianil and air-dried, and then, 12 seeds were sown in a plastic cup having a diameter of 6 cm containing river sand and managed in a greenhouse. The number of emerged seeds was investigated nine days after seeding, and an emergence rate was calculated (Examples 6 to 9). In Comparative Examples 6 to 9, 20 ml of suspension water of an active ingredient, which had been adjusted to have a concentration shown in Table 4, was sprayed in a frame of 45 cm×45 cm in which a pot of wheat seedlings was placed (corresponding to 1000 L/ha) 14 days after seeding. On day 14 after seeding, conidiospores of powdery mildew were sifted over leaves of wheat seedlings and inoculated onto the leaves (after the sprayed liquid was dried in the case of Comparative Examples), a lesion area ratio of powdery mildew in a first leaf was investigated 19 days after seeding according to the criteria in Table 1, and the degree of disease occurrence was calculated by the above calculation formula (1).

[5] = tested on: wheat (variety: Norin No. 61); test: Test Example 2: emergence rate of treated wheat seed; format: in vivo; conditions: 10 days after seeding
Method: (§3) Seed having a mass of 1 kg of wheat (variety: Norin No. 61) was mixed into 100 ml of suspension water containing 5 g or 0.5 g of dichlobentiazox or isotianil (commercial Routine flowable was used, “Routine” is a registered trademark) and air-dried, and then, 15 seeds were sown in a plastic pot of 9 cm×9 cm containing horticultural soil and managed in a greenhouse. The number of emerged seeds was investigated 10 days after seeding, and an emergence rate was calculated (Examples 2 to 5). On day 49 after seeding, conidiospores of powdery mildew were sifted over leaves of wheat seedlings and inoculated onto the leaves, a lesion area ratio of powdery mildew in a first leaf was investigated 59 days after seeding according to the criteria in Table 1, and the degree of disease occurrence was calculated by the above calculation formula (1).

powdery mildew [6] = test: Test Example 3: control test of wheat powdery mildew, cup in greenhouse, inoculated; format: in vivo, Blumeria graminis; set-up: key to Degree of Disease Occurrence: Σ(index×no. leaves of index)/(4×no. investigated leaves)×100; conditions: for Degree of Disease Occurrence: 19 days after seeding
Method: as §1, §2

powdery mildew [7] = test: Test Example 2: control test of wheat powdery mildew, pot in greenhouse, inoculated, wheat variety Norin No. 61; format: in vivo, Blumeria graminis; conditions: for Degree of Disease Occurrence: inoculated day 49, first leaf, 59 days after seeding
Method: as §1, §3

[8] = Seed Treatment 0.5 g/Seed 1 kg (50 g/ha)
[9] = Seed Treatment 5 g/Seed 1 kg (500 g/ha)

## Cc1ccc(NC(=O)c2snnc2C)cc1Cl [Tiadinil, tiadinil, reference compound]
Powdery mildew [1]
  Degree of Disease Occurrence: 11.0
  Disease Leaf Rate (%): 33.3%

## N#Cc1c(Cl)c(Cl)c(Cl)c(C#N)c1Cl [Chlorothalonil, chlorothalonil, reference compound]
Septoria leaf blotch; Foliage Treatment, spray 750 g/ha two times (154 and 184 days after seeding)
  Degree of Disease Occurrence: 3.1

## CCCC1COC(Cn2cncn2)(c2ccc(Cl)cc2Cl)O1 (stereo not shown) [Propiconazole, propiconazole, reference compound]
Powdery mildew [2]; spray 125 g/ha three times
  Degree of Disease Occurrence: 4.4
  Disease Leaf Rate (%): 32.2%
[3]; harvested 106 days after seeding
  Culm Length (cm): 82.5 cm
[3]; wheat in 3 m2, 106 days after seeding
  Seed Yield: 990 g

## CO/C=C(/C(=O)OC)c1ccccc1Oc1cc(Oc2ccccc2C#N)ncn1 [Azoxystrobin, azoxystrobin, reference compound]
Powdery mildew [2]; spray 250 g/ha three times
  Degree of Disease Occurrence: 17.6
  Disease Leaf Rate (%): 90.0%

## N#Cc1ccccc1NC(=O)c1snc(Cl)c1Cl [Compound (10), Isotianil]
Septoria leaf blotch; [8]
  Degree of Disease Occurrence: 2.1
Septoria leaf blotch; seed treatment
  disease occurrence of septoria leaf blotch, seed treatment compared with foliage spraying of chlorothalonil: more suppressed
Powdery mildew [1]
  Degree of Disease Occurrence: 1.0
  Disease Leaf Rate (%): 4.4%
Powdery mildew [1]; seed treatment
  disease occurrence of powdery mildew, seed treatment compared with seed treatment with tiadinil: suppresses the disease occurrence of powdery mildew lower
[4]; Foliage Treatment group, spray 50 ppm (50 g/ha) 14 days after seeding, emergence counted nine days after seeding
  Emergence Rate (%): 97%
[4]; Foliage Treatment group, spray 500 ppm (500 g/ha) 14 days after seeding, emergence counted nine days after seeding
  Emergence Rate (%): 100%
[4]; Seed Treatment 0.5 g/Seed 1 kg (50 g/ha), nine days after seeding
  Emergence Rate (%): 100%
[4]; Seed Treatment 5 g/Seed 1 kg (500 g/ha), nine days after seeding
  Emergence Rate (%): 83.3%
[5]; [8]
  Emergence Rate (%): 96%
[5]; [9]
  Emergence Rate (%): 100%
Powdery mildew [6]; Foliage Treatment, spray 50 ppm suspension water (50 g/ha) day 14, first leaf
  Degree of Disease Occurrence: 47.2
Powdery mildew [6]; Foliage Treatment, spray 500 ppm suspension water (500 g/ha) day 14, first leaf
  Degree of Disease Occurrence: 27.8
Powdery mildew [6]; Seed Treatment 0.5 g/Seed 1 kg (50 g/ha), inoculated day 14, first leaf
  Degree of Disease Occurrence: 23.5
Powdery mildew [6]; Seed Treatment 5 g/Seed 1 kg (500 g/ha), inoculated day 14, first leaf
  Degree of Disease Occurrence: 4.4
Powdery mildew [6]; seed treatment
  disease occurrence of powdery mildew, seed treatment compared with spraying on foliage during a growing period: suppressed lower
Powdery mildew [7]; [8]
  Degree of Disease Occurrence: 7.6
Powdery mildew [7]; [9]
  Degree of Disease Occurrence: 7.1
Powdery mildew [7]; seed treatment
  disease occurrence under artificial inoculation of powdery mildew: the disease occurrence was suppressed
